These results are taken from a melting point compilation (Tetko et al.).

In the case of `OCc1c(F)ccc(F)c1Cl`, the melting point was 47 °C.
In the case of `Cc1nc2ccc(C(=O)O)cc2nc1C` it was 230 °C; in that of `COC(=O)c1ccccc1NC(C)=O`, 97 to 101 °C.
`COC(CCl)OC` yielded a melting point of -73 °C.
Consider `COC(=O)[C@H](CSCc1ccccc1)NC(C)=O`, for which the melting point was in the range of 67 to 73 °C.
In the case of `CC(C)(C)C(=O)NNCc1ccccc1` it was 68.5 °C.
`CC(CC/C(=N/O)C(C)C)CC(=O)O` (configuration not stated) came in with a melting point of 186 to 187 °C.
As to `Clc1ccc(C(Cl)Cl)c(Cl)c1Cl`, the melting point was 84 °C.
In the case of `CC(=O)O[Si](OC(C)=O)(OC(C)=O)OC(C)=O`, the melting point came out at 110 °C.
Compound `O=C(O)c1csc2ccc(Br)cc12` yielded a melting point of 284 to 287 °C.
With `O=C(O)C1CC(=O)N(CCc2ccc(Cl)cc2)C1` (configuration not stated), the melting point is 148 to 150 °C.
`O=C(N[C@@H](Cc1cccc(F)c1)C(=O)O)OCC1c2ccccc2-c2ccccc21` came in with a melting point of 156 °C.
In the case of `CCCCCCCCCCS` it was -26 °C; in that of `C1=C(c2ccccc2)Cc2ccccc21`, 166 to 167 °C.
The compound `COc1cc2c(c3oc(=O)c4c(c13)CCC4=O)C1CCOC1O2` (configuration not stated) yielded a melting point of 288 °C.
The result for `O=C(O)CCOc1ccc(Cl)cc1` reads 136 to 137 °C; that for `O=c1oc2ccccc2c(O)c1C(CC(O)c1ccc(-c2ccc(Br)cc2)cc1)c1ccccc1` (configuration not stated), 199 °C; that for `CNC(=O)Oc1ccccc1C1OCCO1`, 114 °C.
In the case of `c1ccc(C2=NC(c3ccccc3)C(c3ccccc3)N2)cc1` (configuration not stated) it was 134 °C; in that of `CCC1(C(=O)NC(C)c2ccc(Cl)cc2)C(C)C1(Cl)Cl` (configuration not stated), 160 °C; in that of `CCOC(=O)c1c(-c2ccccc2)csc1NC(=O)c1ccc(Cl)cc1Cl`, 149 to 150 °C.
The compound `CC1(C)Cc2cccc(CO)c2O1` had a melting point of 59 to 60 °C.
`CC(=O)C(C(C)=O)C(c1ccc(C)o1)c1ccc(C)o1` showed a melting point of 60 °C.
The compound `Cc1c2ccccc2nc2ccccc12` gave a melting point of 118 °C.
Take `O=C1CN(N=Cc2ccc(-c3ccc([N+](=O)[O-])cc3)o2)C(=O)N1`: the melting point was determined as 280 °C.
`COc1ccc2c(c1)CC1(CCC(O)(c3ccc(C(C)(C)C)cc3)CC1)C2=O` (configuration not stated) gave a melting point of 183 to 184 °C.
As for `O=Cc1ccc(OCc2ccccc2)c(OCc2ccccc2)c1`, the melting point lay within 88 to 92 °C.
The compound `CCCC(O)C(O)(CC)C1CCCCC1` (configuration not stated) displayed a melting point of 78 °C.
For `O=C(C=Cc1ccccc1)NCCO`, the melting point was 101 °C.
The compound `N#C[C@@H]1CCCC[C@H]1O` (relative stereo) registered a melting point of 46 to 49 °C.
In the case of `CCOC(=O)C1CCN(c2ccc(C#N)cc2)CC1`, the melting point lay in the range of 67 to 68 °C.
For the compound `CS(=O)(=O)c1ccc(N)c(Cl)c1`, the melting point was 191 to 198 °C.
`CCO[Si](Cl)(Cl)OCC` showed a melting point of -130 °C.
The result for `CCC(=O)Nc1ccccc1` reads 106 °C; that for `COS(=O)(=O)c1cc([N+](=O)[O-])ccc1C#Cc1ccc([N+](=O)[O-])cc1S(=O)(=O)OC`, 228 °C.
`Cc1nc(-c2ccccc2)c(C=O)s1` gave a melting point of 72 to 75 °C.
`COC(=O)CCC(C)C1CCC2C3C(OC(C)=O)CC4CC(OC(C)=O)CCC4(C)C3CCC12C` (configuration not stated) returned a melting point of 185 to 186 °C.
Take `NC(=O)CCC(N)=O`: the melting point lay in the range of 260 to 265 °C.
In turn, `c1ccc(C2=C(c3ccccc3)C(c3ccccc3)=C(c3ccccc3)C2)cc1` gave a melting point of 179 to 182 °C.
Turning to `COc1cc2c(cc1OC)C(c1ccc(C)cc1)N(C(C)=O)CC2` (configuration not stated), the melting point fell in the range of 183 to 185 °C.
The result for `COc1cc(C=O)cc([N+](=O)[O-])c1O` reads 176 °C.
The compound `O=Cc1ccc(F)c(Cl)c1` had a melting point of 28 to 30 °C.
In the case of `O=c1cc2oc3cc(O)c(O)cc3c(-c3ccccc3)c-2cc1O` it was 300 °C; in that of `CC12CCCC1C1CCC3CC(OCc4ccccc4)CCC3(C)C1CC2` (configuration not stated), 148 °C.
Regarding `C(#CP(c1ccccc1)c1ccccc1)P(c1ccccc1)c1ccccc1`, the melting point is 86 °C.
The result for `CCOC(=O)NCc1ccccc1` reads 49 °C; that for `CCOC(=O)NC(=O)Nn1c(S)nnc1C(F)(F)F`, 232 °C.
As for `Cc1cc(Sc2ccc(C(=O)O)cc2[N+](=O)[O-])c(C)cc1Cl`, the melting point lay within 243 to 248 °C.
As to `Nc1n[nH]c(-c2ccccc2)c1Br`, the melting point lay in the range of 118 to 120 °C.
For `CNC(=O)Oc1ccc(N(C)C)c(C)c1`, the melting point turned out to be 93.9 °C.
Take `C=CC(=O)OCC(CC)CC`: the melting point was -70 °C.
As for `O=[N+]([O-])c1cccnc1Sc1ccc(Cl)cc1`, the melting point is 127 to 129 °C.
Compound `CC/C=C/CCCC` came in with a melting point of -110 °C.
As for `CCOC(=O)C(C#N)=c1sc(=C(C#N)C(=O)OCC)s1`, the melting point was in the range of 159 to 162 °C.
`CN(CC(=O)O)C(=O)c1ccccc1` gave a melting point of 101 to 105 °C.
`O=C(CCc1ccc(O)cc1)c1c(O)cc(O)cc1OC1OC(CO)C(O)C(O)C1O` (configuration not stated) yielded a melting point of 110 °C.
In turn, `CCCCn1c2ccccc2c2ccccc21` displayed a melting point of 58 °C.
Regarding `CC(=O)NCCS`, the melting point came to 6.5 °C.
In turn, `O=C(c1ccc2ccccc2c1)c1noc(-c2ccc(Cl)cc2)c1S(=O)(=O)c1ccccc1` yielded a melting point of 165 °C.
With `CC12CCCC1C1CCC(CCC(=O)O)C(C)(CCC(=O)O)C1CC2` (configuration not stated), the melting point was found to be 232 °C.
The result for `N#Cc1cc(F)ccc1F` reads 33 to 35 °C; that for `Fc1ccc(F)cc1`, -13 °C; that for `Cc1cc(C)c(N=C=S)c(C)c1`, 63 to 64 °C.
The compound `Cc1cccc(C)c1N(C)C` gave a melting point of -36 °C.
`N#Cc1cc(F)c(Cl)nc1Cl` gave a melting point of 91 °C.
In the case of `ClCOc1ccc(Cl)cc1`, the melting point lay within 29 to 30 °C.
The result for `Oc1ccc(Cl)c2ccccc12` reads 117 to 120 °C.
On to `C=CCSc1nc(C)n[nH]1`, for which the melting point lay in the range of 88 to 90 °C.
On to `Cc1c(NC=C2C(=O)NN=C2c2c(O)c3ccccc3n(C)c2=O)c(=O)n(-c2ccccc2)n1C`, for which the melting point was 175 °C.
For `CCOC(=O)c1ccc(N=C=S)cc1`, the melting point turned out to be 57 °C.
In turn, `Sc1nccs1` registered a melting point of 78.5 °C.
The result for `Cc1ncc(C=O)n1C` reads 76 to 77 °C.
As for `c1cn[nH]c1`, the melting point was 68 °C.
The result for `COc1ccc(N)cc1N` reads 67.5 °C; that for `N[C@H](C(=O)O)c1ccc(F)cc1`, 300 °C; that for `COC(=O)c1ccc([N+](=O)[O-])c(OC)c1`, 85 °C.
Compound `O=C1C(c2ccccc2)=C(c2ccccc2)C(c2ccccc2)=C1c1ccccc1` had a melting point of 217 to 222 °C.
Compound `O=C(S)c1ccccc1` registered a melting point of 24 °C.
For the compound `CC(=O)OC1CC2C(C)(C)CCCC2(C)C2=C1C(=O)C(C(C)C)=C(O)C2=O` (configuration not stated), the melting point worked out at 213 °C.
In the case of `CCNc1cc2oc(=O)cc(C(F)(F)F)c2cc1C` it was 184 °C; in that of `CCC1(O)CCC2(C)C(CCC3C4CCC(=O)C4(C)CCC32)C1` (configuration not stated), 113 to 116 °C.
`OCc1cccc(-c2cncnc2)c1`: the melting point lay within 65 to 66 °C.
`CC12CCC(O)CC1CCC1C3CCC(O)(C#Cc4ccccc4)C3CCC12` (configuration not stated) had a melting point of 118 to 125 °C.
`CC(=O)CCc1c[nH]c2ccccc12` displayed a melting point of 94 to 96 °C.
Turning to `Brc1ccc2cc(Br)ccc2c1`, the melting point was determined as 165 °C.
In turn, `Cc1ccc(N2CCNCC2)cc1C` gave a melting point of 63 °C.
`CC1=CCC(=C(C)C)CC1` came in with a melting point of less than 25 °C.
Compound `CCOCCOC(=O)CCCCCCCCC(=O)OCCOCC` showed a melting point of -1 °C.
In the case of `COC(=O)C(C)(N)Cc1c[nH]c2ccccc12` (configuration not stated) it was 139 to 142 °C; in that of `Cc1cc(C)c(CO)c(C)c1`, 87 °C; in that of `c1ccc2c(c1)OCCOCCOCCOCCOc1ccccc1OCCO2`, 48 to 52 °C.
On to `Nc1cc(C(F)(F)F)c(Br)cc1F`, for which the melting point is 36 °C.
With `COc1ccc(-c2csc(/C(C#N)=N\Nc3ccc(C)cc3)n2)cc1`, the melting point stood at 151 °C.
In turn, `OC1C(O)C(O)C(O)C(O)C1O` (configuration not stated) came in with a melting point of 230 °C.
As for `Ic1ccc2c(c1)Oc1ccccc1O2`, the melting point came out at 95 °C.
The compound `CCN(CC)c1c([N+](=O)[O-])cc(C(F)(F)F)c(N)c1[N+](=O)[O-]` showed a melting point of 98.5 °C.
Regarding `CC(C)=C1CC(=C(C)C)C1=O`, the melting point amounted to 87 °C.
Regarding `CCN(CC)C(C)O` (configuration not stated), the melting point was -70 °C.
For the compound `COc1ccc(-c2nn(-c3ccccc3)cc2CNc2ccc(F)c(Cl)c2)cc1`, the melting point was determined as 117 °C.
In the case of `CCCCOC(=O)C(C)O` (configuration not stated) it was -28 °C.
`Cc1cccc(Nc2ccncc2S(=O)(=O)NC(=O)NC(C)C)c1` had a melting point of 163 °C.
In the case of `N#CC(=CN)S(=O)(=O)c1ccc(Cl)cc1`, the melting point lay within 213 to 214 °C.
In the case of `Br/C=C/Br`, the melting point was -6.5 °C.
Regarding `CC(F)(F)C(=O)O`, the melting point came out at 43 °C.
`Cc1cccc(C)c1C(N)=O` returned a melting point of 136 to 138 °C.
`O=[N+]([O-])c1c(Cl)cccc1Cl` showed a melting point of 72.5 °C.
The result for `N#CCc1ccc(Cl)cc1Cl` reads 60 to 63 °C; that for `O=C1CCCCCCCCCCCN1`, 152 °C.
In the case of `CN(C)c1nc(-c2cccs2)cc(C(F)(F)F)c1C#N` it was 118 to 119 °C; in that of `O=C(Oc1ccc(Cl)cc1)c1ccc(Oc2ccc(C(=O)Oc3ccc(Cl)cc3)cc2)cc1`, 149 °C.
Compound `ClCc1cc2c(cc1Cl)OCO2` gave a melting point of 64 °C.
Compound `CC(Br)C(C)(C)Br` (configuration not stated) came in with a melting point of 11 °C.
